Test results published in PMC9072249 (Acta Pharmaceutica Sinica. B, 2021).

Tested on: SD rat with neuropathic pain model induced by spared nerve injury (SNI)
Experiment: Neuropathic pain model induced by spared nerve injury
Type: in vivo
Conditions: SNI SD rats, po BID, 60 mg/kg/day, 20 days

Structure (SMILES): NCC1(CC(=O)O)CCCCC1 [gabapentin]
- course of efficacy over the study: gradually reduced
